Patent publication US20260007613A1, “LONG-ACTING LOW-TOXICITY NOVEL CATIONIC LIPID COMPOUNDS AND COMPOSITION THEREOF” (BEIJING YOUCAREKECHUANG PHARMACEUTICAL TECHNOLOGY CO., LTD., priority 2023, published 2026)
“And” between values parts separate entries of the source, which are not always exact repeats. Equal entries are not always repeated.

Columns and labels:
293T cells [1] = test: Fluorescent detection of Fluc-mRNA (cell transfection efficiency of LNP formulations); assay type: cell-based
Outline: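 Transfection read-out: IVIS imaging after […], 24 h after adding LNPs (lipid molar ratio 49:10:39.5:1.5 cationic/neutral/structured/polymer-lipid; […] Fluc-mRNA). Adherent 293T cells were seeded overnight at 10,000 per well beforehand.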

293T cells [2] = test: Cell survival rate determination (CCK-8); assay type: cell-based
Outline: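 Readout was CCK-8 absorbance (450 nm, 1 h) taken after a 24 h exposure of overnight-adhered 293T cells (10,000 per well, 96-well) to Lipofectamine 3000 or to LNPs carrying Fluc-mRNA, lipid molar ratio 49:10:39.5:1.5 cationic/neutral/structured/polymer-conjugated.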

liver = test: Distribution of liposomes in mice: protein expression in the liver (live imaging); assay type: in vivo; settings: at 6 h
Protocol: The LNP formulation containing […] Fluc-mRNA was injected intramuscularly into female BALB/C mice aged 4 to 6 weeks old and weighed 17 to 19 g, and the mice were intraperitoneally injected with fluorescent imaging substrate at specific time points after administration (6 h, 24 h, 48 h and 7 d), where the mice were free to move for 5 minutes, and then the average radiation intensity (corresponding to fluorescence expression intensity) of the protein expression of the mRNA carried by the LNP in the mice was detected by the IVIS Spectrum small animal live imaging device.
At 24 h, the LNP formulations prepared from all compounds had been metabolized in the liver and had no protein expression.

[3] = Particle size and polydispersity index (PDI) of lipid nanoparticles by dynamic light scattering; assay type: physicochemical; settings: LNP formulation prepared from the cationic lipid, 25° C.
Protocol: The particle size and polydispersity index (PDI) were determined by dynamic light scattering using Malvern laser particle size analyzer.
10 μL of the liposome solution was weighed, diluted to 1 mL with RNase-free deionized water, and added to the sample pool. Each sample was measured in triplicate. The measurement conditions were: […] scattering angle, and 25° C.

female BALB/C mice = test: Live imaging in mice: protein expression of Fluc-mRNA delivered by LNP formulations; assay type: in vivo; settings: for average radiation intensity, times that of ALC-0315: comparator ALC-0315; for average radiation intensity, times that of HHMA: comparator HHMA; for average radiation intensity, times that of SM-102: comparator SM-102; for expression of mRNA in mice, times that of YK-302: comparator YK-302; for expression amount, times that of YK-309: comparator YK-309; for expression amount, times that of YK-313: comparator YK-313; for expression amount, times that of YK-321: comparator YK-321; for average radiation intensity, times that of compound 21: comparator compound 21; for average radiation intensity, times that of compound 23: comparator compound 23
Outline: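 Female BALB/C mice (4-6 weeks, 17-19 g) received LNP-formulated Fluc-mRNA […] intramuscularly. At 6 h, 24 h, 48 h and 7 d, luciferase substrate given intraperitoneally, and after 5 min average radiance measured by IVIS whole-body imaging.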

CCCCCCCCC(CCCCCCCC)COC(=O)CCCCCN(CCCCCC(=O)OCC(CCCCCCCC)CCCCCCCC)C[C@H](O)CN(C)CCO [YK-305, (R)-Bis(2-octyldecyl)-6,6′-((2-hydroxy-3-((2-hydroxyethyl)(methyl)amino)propyl)azanediyl)dihexanoate]
Relative light unit (RLU) (293T cells [1]; LNP formulation of Fluc-mRNA, 96-well plate, 24 hours): 27408734 RLU
Multiples (YK-305) (293T cells [1]; RLU of YK-305 / RLU of the lipid of the line): 1.00
Multiples (YK-310) (293T cells [1]; RLU of YK-310 / RLU of the lipid of the line): 0.94
Multiples (YK-312) (293T cells [1]; RLU of YK-312 / RLU of the lipid of the line): 0.74
Multiples (YK-318) (293T cells [1]; RLU of YK-318 / RLU of the lipid of the line, Tables 5, 7, 11): 0.41
Multiples (YK-319) (293T cells [1]; RLU of YK-319 / RLU of the lipid of the line, Tables 5, 7, 11): 0.89
Ratio relative to SM-102 (293T cells [1]; RLU of the lipid / RLU of SM-102, times that of SM-102): 17.09
cell transfection efficiency, times that of ALC-0315 (293T cells [1]; comparator ALC-0315): 13.48 times
cell transfection efficiency, times that of HHMA (293T cells [1]; comparator HHMA): 13.66 times
cell transfection efficiency, times that of Lipofectamine 3000 (293T cells [1]; comparator Lipofectamine 3000): 23.12 times
cell transfection efficiency, times that of YK-009 (293T cells [1]; comparator YK-009): 5.35 times
cell transfection efficiency, times that of YK-301 (293T cells [1]; comparator YK-301): 32.53 times
cell transfection efficiency, times that of YK-303 (293T cells [1]; comparator YK-303): 43.76 times
cell transfection efficiency, times that of YK-306 (293T cells [1]; comparator YK-306): 12.47 times
cell transfection efficiency, times that of YK-307 (293T cells [1]; comparator YK-307): 6.01 times
cell transfection efficiency, times that of YK-308 (293T cells [1]; comparator YK-308): 5.44 times
cell transfection efficiency, times that of YK-309 (293T cells [1]; comparator YK-309): ~210 times and 218.62 times and ~200 times
cell transfection efficiency, times that of YK-311 (293T cells [1]; comparator YK-311): 13.96 times
cell transfection efficiency, times that of YK-313 (293T cells [1]; comparator YK-313): 31.63 times
cell transfection efficiency, times that of YK-314 (293T cells [1]; comparator YK-314): 50.07 times
cell transfection efficiency, times that of YK-315 (293T cells [1]; comparator YK-315): 17.27 times
cell transfection efficiency, times that of YK-316 (293T cells [1]; comparator YK-316): 5.70 times
cell transfection efficiency, times that of YK-317 (293T cells [1]; comparator YK-317): 7.60 times
cell transfection efficiency, times that of YK-320 (293T cells [1]; comparator YK-320): 10.14 times
cell transfection efficiency, times that of YK-321 (293T cells [1]; comparator YK-321): 19.53 times and ~20 times
cell transfection efficiency, times that of compound 21 (293T cells [1]; comparator compound 21): 19.14 times
cell transfection efficiency, times that of compound 23 (293T cells [1]; comparator compound 23): 20.21 times
Cell survival rate (%) (293T cells [2]; LNP formulation of Fluc-mRNA, 24 hours, CCK-8): 82.18%
cell survival rate higher than ALC-0315 (293T cells [2]; difference of survival rates, comparator ALC-0315): 31.15% and ~30%
cell survival rate higher than HHMA (293T cells [2]; difference of survival rates, comparator HHMA): 15.71% and ~15%
cell survival rate higher than Lipofectamine 3000 (293T cells [2]; difference of survival rates, comparator Lipofectamine 3000): 57.17%
cell survival rate higher than SM-102 (293T cells [2]; difference of survival rates, comparator SM-102): 12.73% and ~12%
cell survival rate higher than YK-301 (293T cells [2]; difference of survival rates, comparator YK-301): 29.22%
cell survival rate higher than YK-302 (293T cells [2]; difference of survival rates, comparator YK-302): 65.75% and ~65% and ~50%
cell survival rate higher than YK-303 (293T cells [2]; difference of survival rates, comparator YK-303): 18.86%
cell survival rate higher than YK-304 (293T cells [2]; difference of survival rates, comparator YK-304): 48.02%
cell survival rate higher than YK-306 (293T cells [2]; difference of survival rates, comparator YK-306): 39.99%
cell survival rate higher than YK-307 (293T cells [2]; difference of survival rates, comparator YK-307): 21.04%
cell survival rate higher than YK-308 (293T cells [2]; difference of survival rates, comparator YK-308): 11.19%
cell survival rate higher than YK-309 (293T cells [2]; difference of survival rates, comparator YK-309): 50.57%
cell survival rate higher than YK-311 (293T cells [2]; difference of survival rates, comparator YK-311): 12.12%
cell survival rate higher than YK-313 (293T cells [2]; difference of survival rates, comparator YK-313): 13.25%
cell survival rate higher than YK-314 (293T cells [2]; difference of survival rates, comparator YK-314): 14.30%
cell survival rate higher than YK-315 (293T cells [2]; difference of survival rates, comparator YK-315): 10.90%
cell survival rate higher than YK-316 (293T cells [2]; difference of survival rates, comparator YK-316): 11.65%
cell survival rate higher than YK-317 (293T cells [2]; difference of survival rates, comparator YK-317): 23.00% and ~20%
cell survival rate higher than YK-320 (293T cells [2]; difference of survival rates, comparator YK-320): 11.110%
cell survival rate higher than YK-321 (293T cells [2]; difference of survival rates, comparator YK-321): 9.84%
cell survival rate higher than compound 21 (293T cells [2]; difference of survival rates, comparator compound 21): 11.97%
cell survival rate higher than compound 23 (293T cells [2]; difference of survival rates, comparator compound 23): 10.68%
expression amount in the liver compared with ALC-0315 and SM-102 (liver): reduced
protein expression in the liver (liver; intramuscular injection): had protein expression in the liver
PDI (%) [3]: 10.7%
Particle size (nm) [3]: 191 nm
average radiation intensity, times that of ALC-0315 (female BALB/C mice; 6 h): 10.70 times
average radiation intensity, times that of HHMA (female BALB/C mice; 6 h): 14.19 times
average radiation intensity, times that of SM-102 (female BALB/C mice; 6 h): 13.18 times
expression of mRNA in mice, times that of YK-302 (female BALB/C mice; 6 h): 633.70 times
expression amount, times that of YK-309 (female BALB/C mice; 6 h): 140.67 times
expression amount, times that of YK-313 (female BALB/C mice; 6 h): 20.89 times
expression amount, times that of YK-321 (female BALB/C mice; 6 h): 17.92 times
average radiation intensity, times that of compound 21 (female BALB/C mice; 6 h): 15.14 times
average radiation intensity, times that of compound 23 (female BALB/C mice; 6 h): 15.68 times
average radiation intensity (female BALB/C mice; 6 h after intramuscular injection): 9239340
average radiation intensity, times that of ALC-0315 (female BALB/C mice; 24 h): 14.82 times
average radiation intensity, times that of HHMA (female BALB/C mice; 24 h): 23.54 times
average radiation intensity, times that of SM-102 (female BALB/C mice; 24 h): 23.44 times
expression of mRNA in mice, times that of YK-302 (female BALB/C mice; 24 h): 713.70 times
expression amount, times that of YK-309 (female BALB/C mice; 24 h): 167.86 times
expression amount, times that of YK-313 (female BALB/C mice; 24 h): 27.04 times
expression amount, times that of YK-321 (female BALB/C mice; 24 h): 27.89 times
average radiation intensity, times that of compound 21 (female BALB/C mice; 24 h): 25.70 times
average radiation intensity, times that of compound 23 (female BALB/C mice; 24 h): 27.01 times
average radiation intensity (female BALB/C mice; 24 h after intramuscular injection): 2823400
average radiation intensity, times that of ALC-0315 (female BALB/C mice; 48 h): 26.32 times
average radiation intensity, times that of HHMA (female BALB/C mice; 48 h): 32.18 times
average radiation intensity, times that of SM-102 (female BALB/C mice; 48 h): 32.19 times
expression amount, times that of YK-309 (female BALB/C mice; 48 h): 159.93 times and ~160 times
expression amount, times that of YK-313 (female BALB/C mice; 48 h): 40.99 times
expression amount, times that of YK-321 (female BALB/C mice; 48 h): 28.65 times
average radiation intensity, times that of compound 21 (female BALB/C mice; 48 h): 33.82 times
average radiation intensity, times that of compound 23 (female BALB/C mice; 48 h): 31.63 times
average radiation intensity (female BALB/C mice; 48 h after intramuscular injection): 1047720
average radiation intensity, times that of ALC-0315 (female BALB/C mice; 7 d): 18.02 times
average radiation intensity, times that of HHMA (female BALB/C mice; 7 d): 21.63 times
average radiation intensity, times that of SM-102 (female BALB/C mice; 7 d): 19.18 times
expression amount, times that of YK-309 (female BALB/C mice; 7 d): 101.13 times and ~100 times
expression amount, times that of YK-313 (female BALB/C mice; 7 d): 39.26 times
expression amount, times that of YK-321 (female BALB/C mice; 7 d): 19.29 times
average radiation intensity, times that of compound 21 (female BALB/C mice; 7 d): 19.71 times
average radiation intensity, times that of compound 23 (female BALB/C mice; 7 d): 20.35 times
average radiation intensity (female BALB/C mice; 7 d after intramuscular injection): 127015
